This test concerns Radical scavenging activity. The test can be described thus: Antioxidant activity assessed as DPPH radical scavenging activity. Format: functional. Background: The DPPH test is a chemical assay of radical scavenging.

Molecules are shown by their SMILES. Active and inactive are the calls of the source. The rule behind the calls is not given here.

With `CC(C)=C[C@H]1C=C(C)[C@@H]2CC[C@H](C)[C@@]23CCC(C)=C[C@@H]13` (relative stereo), the outcome was inactive. Under `CC(C)=C[C@H]1C=C(C)[C@H]2CC[C@H](C)[C@@H]3CC=C(C)[C@@H]1[C@@H]32` (relative stereo) stands “inactive”.

Values taken from ChEMBL document CHEMBL2010733, “Amphilectane diterpenes from Salvia sclarea: biosynthetic considerations” (J Nat Prod, 2012).
